# Patent publication US12194057B2, “NXTAR-derived oligonucleotides and uses thereof” (Washington University, priority 2020, dated 2025)
# Oligonucleotides are written 5' to 3', each unit as a sugar letter and its base; * is a phosphorothioate linkage, no mark a phosphodiester; rarer units and linkages stand in square brackets, end groups in braces. Plain capitals give the bases only. d = 2'-deoxy (DNA)
# Experiments:
# AR-V7 = assay: qRT-PCR of AR-V7 expression in prostate cancer cells; type: cell-based, human; settings: VCaP and 22Rv1 cells transfected with oligonucleotide
# Experimental: (§1) NXTAR-N5 oligonucleotide was synthesized by IDT, and the oligonucleotide sequence is provided in TABLE 1 and FIG. 7C (* represents phosphorothioate bond modifications to avoid degradation by exonucleases). Equal numbers of VCaP and 22Rv1 cells were transfected with NXTAR-N5 or globin-derived oligonucleotide using X-tremeGENE360 (Sigma-Aldrich, Cat #08724121001), and the number of live cells was counted 96 h post-transfection using trypan blue exclusion method (Sigma, Cat #T8154). RNA was prepared from these cells, and qRT-PCR [SYBR PremixEx Taq II (Tli RNase H Plus)ROX, Clontech Takara, Cat #RR82LR] for AR and AR-V7 was performed as described earlier (see e.g., Mahajan et al. (2017) Cancer Cell).
# Cells were transfected, infected or treated [(R)-9b; EPZ6438, TargetMol, Cat #T1788] accordingly. RNA was used for cDNA preparation using High-Capacity cDNA Reverse Transcription Kit (Thermo Scientific Cat #4368814). Resulting cDNA was then analyzed by qPCR using an Applied Biosystems 7900 Real-Time PCR System (Thermo Scientific) and SYBR Green PCR Master Mix [SYBR PremixEx Taq II (Tli RNase H Plus) ROX, Clontech Takara, Cat #RR82LR] according to the manufacturers' instructions. Dissociation curves were generated for each plate to verify the integrity of the primers. The relative expression of RNAs was calculated using the comparative Ct or standard curve method. […]
# upstream of AR = assay: ChIRP with biotin-labeled oligos and VCaP lysate, qPCR with AR Up1.1 primers; type: binding, human; settings: biotinylated oligo on streptavidin beads, VCaP lysate, qPCR AR Up1.1
# Experimental: (§2) Biotin-labeled NXTAR-N5 (complementary to the AR promoter) and globin oligos were synthesized (IDT) (see e.g., TABLE 1). ChIRP was performed using lysate from formaldehyde-fixed VCaP cells and oligos that were immobilized to streptavidin beads, as described earlier (see e.g., Chu and Chang (2016) Methods Mol Bio). The amount of the chromatin DNA was determined by real-time PCR. For detection of NXTAR-N5/EZH2 binding, biotin-labeled NXTAR-N5 oligo and control globin oligo were incubated with VCaP cell lysates and were subjected to chromatin pull-down, followed by immunoblotting with EZH2 antibodies.
# purified EZH2 = target: T1, purified EZH2 (Homo sapiens, UniProt Q15910); assay: EZH2 pull-down assay with purified 6xHis-tagged EZH2; type: binding; settings: pull-down, immunoblotting
# T1 construct: made in house
# Experimental: 1 mg of lysate prepared from HEK293 cells transfected with 6λHis-tagged-EZH2 plasmid was incubated with Ni-NTA agarose beads (Qiagene) overnight at 4° C. Beads were washed three times using wash buffer (20 mM Tris/HCl, 200 mM NaCl, 5 mM imidazole; pH 7.5) and purified EZH2 was eluted using elution buffer (20 mM Tris/HCl, 200 mM NaCl, 200 mM imidazole; pH 7.5).
# LncRNA-Protein binding study was performed as described earlier (see e.g., Zhao, Wang, and Hu (2021) Methods Mol Bio). Briefly, 10 pmol Biotinylated NXTAR-N5 oligo or Biotinylated Globin oligos were diluted in 40 ul RNA structure buffer, heated at 90° C. for 2 min, immediately transferred onto ice for 2 min and then kept at RT for further 20 mins. 10 uM of purified EZH2 protein was added to these biotinylated oligos with 500 ul of NETN buffer and the tubes were placed at 4° C. for 2 hrs. Post washing with cold NETN buffer, streptavidin magnetic beads (60 ul) were added into prepared oligo-protein mix and incubated at 4° C. overnight. Beads were washed 3 times with NETN buffer, followed by western blot analysis. […]
# AR promoter = assay: ChIP-qPCR (EZH2, H3K27me3) at AR promoter; type: cell-based, human; settings: VCaP cells transfected with oligo, ChIP
# Experimental: (§3) Chromatin immunoprecipitation (ChIP), quantitative RT-PCR, and ChIP-qPCR were performed as described earlier (see e.g., Mahajan et al. (2017) Cancer Cell; Mahajan et al. (2012) J Biol Chem; and Mahajan et al. (2012) Nat Struct Mol Bio). Briefly, cells were either transfected, infected or treated with various inhibitors (R)-9b; CPTH2 (Sigma, Cat #C9873)], fixed in formaldehyde, lysed and ChIP was performed with antibodies recognizing AR (SCBT, sc-7305; RRID:AB_626671), GCN5 (SCBT, SC-365321; RRID:AB_10846182), H3K14ac (CST, 7627S; RRID:AB_10839410), H3K27me3 (CST, 9733S; RRID:AB 2616029), NCOR1 (Bethyl Laboratories, Cat #A301-145A; RRID:AB_873085), EZH2 (CST, 5246S; RRID:AB_10694683), or IgG (Abcam, ab2410; RRID:AB_303052), immobilized on Protein A magnetic beads (Biorad, Cat #161-4013). The complexes were washed with ChIP buffers, eluted with elution buffer (Active Motif, Cat #53008), and subjected to reverse crosslinking, followed by RNase and proteinase K treatments. A part of soluble chromatin was processed separately at the same time and designated as input DNA. Treated ChIP DNA and input DNAs were purified using PCR-DNA purification columns (Qiagen, Cat #28106). The amount of immunoprecipitated DNA was determined by real-time PCR.
# AR = assay: qRT-PCR of AR and AR target gene expression in prostate cancer cells; type: cell-based, human
# Experimental: as §1
# (§4) Cells were transfected, infected or treated [(R)-9b; EPZ6438, TargetMol, Cat #T1788] accordingly. RNA was used for cDNA preparation using High-Capacity cDNA Reverse Transcription Kit (Thermo Scientific Cat #4368814). Resulting cDNA was then analyzed by qPCR using an Applied Biosystems 7900 Real-Time PCR System (Thermo Scientific) and SYBR Green PCR Master Mix [SYBR PremixEx Taq II (Tli RNase H Plus) ROX, Clontech Takara, Cat #RR82LR] according to the manufacturers' instructions. Dissociation curves were generated for each plate to verify the integrity of the primers. The relative expression of RNAs was calculated using the comparative Ct or standard curve method. 18S rRNA or actin were used as internal controls.
# EZH2 = target: T2, EZH2 (Homo sapiens, UniProt Q15910); assay: Pull-down from VCaP cell lysates with biotinylated oligos, immunoblotting for EZH2; type: binding; settings: VCaP cell lysate, chromatin pull-down
# T2 construct: endogenous in cells; host or cells: VCaP cells (some retrovirally infected to over-express NXTAR lncRNA)
# Experimental: The biotinylated oligonucleotides were incubated with lysates (2 h), and the lysates were incubated with streptavidin magnetic beads overnight. Beads attached to RNAs were divided equally and processed for either RNA isolation or western blotting. For RNA isolation, beads were washed three times and then separated using proteinase K treatment. RNA was then isolated and purified, and DNA was digested in the process. The real-time quantitative RT-PCR was performed on isolated RNA to check the efficiency of pull-down of NXTAR RNA. The remaining beads were heated at 80° C. for 5 min in loading buffer, followed by western blotting. The blots were probed with EZH2 (CST, 5246S; RRID:AB_10694683) antibody and Actin (SCBT, sc-47778; RRID:AB_2714189) was used as the loading control.
# as §2
# VCaP and 22Rv1 cells = assay: Proliferation assay, viable cells by trypan blue exclusion; type: cell-based, human
# Experimental: as §1
# The 22Rv1, VCaP, or LNCaP cells were retrovirally infected with control or NXTAR vectors and selected in puromycin medium containing 5% charcoal-stripped serum. Equal numbers of selected cells were seeded in 6-well plates followed by treatment with either (R)-9b, enzalutamide (Selleck Chemicals, Cat #S1250), or abiraterone (Selleck Chemicals, Cat #52246), and the number of viable cells was counted by trypan blue exclusion assay.
# NXTAR = assay: qRT-PCR of NXTAR expression in prostate cancer cell lines; type: cell-based, human
# Experimental: as §4
# NXTAR promoter = assay: ChIP-qPCR at NXTAR promoter (Ppr3, Ppr4), IRF8 binding site and NXTAR enhancer; type: cell-based, human; settings: 22Rv1 and LNCaP cells, (R)-9b combined with CPTH2
# Experimental: as §3
# [1] = Enzalutamide-resistant VCaP cells, 7 μM enzalutamide, 96 h
# T2 sequence (Q15910 whole entry): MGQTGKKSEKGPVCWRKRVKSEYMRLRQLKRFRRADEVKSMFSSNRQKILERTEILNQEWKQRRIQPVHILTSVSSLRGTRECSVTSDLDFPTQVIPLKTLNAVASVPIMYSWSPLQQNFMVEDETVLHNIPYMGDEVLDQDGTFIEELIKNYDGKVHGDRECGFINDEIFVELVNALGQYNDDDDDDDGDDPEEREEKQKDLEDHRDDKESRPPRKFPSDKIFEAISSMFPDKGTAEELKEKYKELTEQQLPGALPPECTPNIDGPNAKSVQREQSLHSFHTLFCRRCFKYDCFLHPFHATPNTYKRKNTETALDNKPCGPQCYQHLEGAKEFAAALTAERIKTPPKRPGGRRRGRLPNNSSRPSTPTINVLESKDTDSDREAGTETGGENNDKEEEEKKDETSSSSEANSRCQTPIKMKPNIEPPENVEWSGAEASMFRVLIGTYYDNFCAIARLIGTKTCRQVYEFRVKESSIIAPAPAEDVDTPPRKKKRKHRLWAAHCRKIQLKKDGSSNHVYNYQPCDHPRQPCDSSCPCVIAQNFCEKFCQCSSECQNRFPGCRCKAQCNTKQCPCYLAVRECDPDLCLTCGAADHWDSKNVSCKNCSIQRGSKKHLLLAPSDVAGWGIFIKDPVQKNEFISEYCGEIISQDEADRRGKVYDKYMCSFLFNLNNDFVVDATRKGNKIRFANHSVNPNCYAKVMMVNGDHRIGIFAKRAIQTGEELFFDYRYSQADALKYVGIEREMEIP
# T2 sequence (O75530 whole entry partner): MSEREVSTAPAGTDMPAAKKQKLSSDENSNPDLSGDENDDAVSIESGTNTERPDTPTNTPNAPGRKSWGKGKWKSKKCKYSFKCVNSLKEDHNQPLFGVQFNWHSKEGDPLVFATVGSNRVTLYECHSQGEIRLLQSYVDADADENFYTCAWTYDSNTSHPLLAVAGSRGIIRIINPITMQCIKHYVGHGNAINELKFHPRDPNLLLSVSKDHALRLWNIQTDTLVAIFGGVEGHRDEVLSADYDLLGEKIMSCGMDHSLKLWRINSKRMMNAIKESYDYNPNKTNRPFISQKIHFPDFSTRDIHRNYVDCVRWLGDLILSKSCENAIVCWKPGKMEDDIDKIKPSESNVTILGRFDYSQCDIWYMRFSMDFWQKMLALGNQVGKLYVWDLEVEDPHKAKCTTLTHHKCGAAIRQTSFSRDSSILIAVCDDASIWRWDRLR
# T2 sequence (Q15022 whole entry partner): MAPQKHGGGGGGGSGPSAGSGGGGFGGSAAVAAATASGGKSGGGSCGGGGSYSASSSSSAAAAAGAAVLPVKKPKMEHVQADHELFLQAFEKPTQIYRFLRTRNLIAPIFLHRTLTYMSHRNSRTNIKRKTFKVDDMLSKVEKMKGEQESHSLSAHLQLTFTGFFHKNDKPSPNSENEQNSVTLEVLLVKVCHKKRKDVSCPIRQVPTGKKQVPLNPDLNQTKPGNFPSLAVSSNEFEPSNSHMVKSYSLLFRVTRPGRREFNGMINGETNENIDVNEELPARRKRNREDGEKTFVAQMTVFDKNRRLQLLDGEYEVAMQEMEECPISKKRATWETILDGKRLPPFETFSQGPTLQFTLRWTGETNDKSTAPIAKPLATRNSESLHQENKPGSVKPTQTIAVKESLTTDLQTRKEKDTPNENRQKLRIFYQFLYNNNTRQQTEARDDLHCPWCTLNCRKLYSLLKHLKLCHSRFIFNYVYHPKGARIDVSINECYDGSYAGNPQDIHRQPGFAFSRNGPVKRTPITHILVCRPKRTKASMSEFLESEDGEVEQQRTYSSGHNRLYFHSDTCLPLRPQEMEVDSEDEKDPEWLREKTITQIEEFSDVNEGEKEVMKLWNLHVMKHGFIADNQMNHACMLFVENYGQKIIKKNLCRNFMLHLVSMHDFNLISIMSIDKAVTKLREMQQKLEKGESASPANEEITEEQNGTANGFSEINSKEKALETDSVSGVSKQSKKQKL
# T2 sequence (Q09028 whole entry partner): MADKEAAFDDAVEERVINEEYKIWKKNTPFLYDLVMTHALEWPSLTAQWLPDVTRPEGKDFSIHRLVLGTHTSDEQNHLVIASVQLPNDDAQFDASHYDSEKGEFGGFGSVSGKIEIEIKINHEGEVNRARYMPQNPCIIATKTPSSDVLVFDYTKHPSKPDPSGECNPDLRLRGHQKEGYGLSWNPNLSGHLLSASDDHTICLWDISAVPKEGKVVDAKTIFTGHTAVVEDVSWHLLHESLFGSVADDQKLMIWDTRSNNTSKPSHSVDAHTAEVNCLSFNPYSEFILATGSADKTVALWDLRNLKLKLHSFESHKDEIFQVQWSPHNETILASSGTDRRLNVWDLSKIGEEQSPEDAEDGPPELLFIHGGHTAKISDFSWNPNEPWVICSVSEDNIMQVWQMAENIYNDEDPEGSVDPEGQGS
# T1 sequence (Q15910 whole entry): as the sequence (Q15910 whole entry) above
molecule,measurement,setting,value
"NXTAR-N5: 60-mer oligonucleotide, nt 511-570 of SEQ ID NO: 58, terminal phosphorothioate bonds (SEQ ID NO: 1) (DNA dA*dT*dT*dAdTdTdAdTdTdTdTdAdAdAdTdTdTdAdCdAdGdAdAdGdGdGdGdAdAdAdCdTdAdAdGdAdAdTdTdAdTdAdGdAdCdAdTdGdAdAdGdTdGdAdCdTdC*dA*dC*dC)",AR-V7 transcription,AR-V7,significant decrease
same,binding upstream of AR,upstream of AR,bound upstream of AR
same,interaction with purified EZH2,purified EZH2,interaction with purified EZH2 (as described above) was confirmed
same,histone H3K27 methylation in the AR promoter region (−0.7 kb),AR promoter,induced histone H3K27 methylation
same,AR transcription,AR; VCaP and 22Rv1 cells transfected with oligonucleotide,significant decrease
same,AR expression,"AR; transfection of oligos, prostate and other cancer cell lines",highly effective
same,interaction with EZH2,EZH2,interaction with EZH2 was confirmed
same,proliferation (live cells),"VCaP and 22Rv1 cells; VCaP and 22Rv1 cells, 96 h post-transfection",compromised proliferation
"CNC(=O)c1ccc(N2C(=S)N(c3ccc(C#N)c(C(F)(F)F)c3)C(=O)C2(C)C)cc1F [enzalutamide, reference compound]",NXTAR levels,NXTAR; [1],no change in NXTAR levels
same,AR levels,AR; [1],marginal decrease in AR levels
same,proliferation (number of viable cells),"VCaP and 22Rv1 cells; VCaP (9 days) and 22Rv1 (5 days) cells, androgen-deprived, drug treatment",did not result in a significant decrease in proliferation
Clc1ccc(-c2csc(NN=C3CCCC3)n2)cc1 [CPTH2],NXTAR levels following (R)-9b treatment under GCN5 inhibition,"NXTAR; 22Rv1 and LNCaP cells, CPTH2 in combination with (R)-9b",severely compromised
same,H3K14ac mark deposition at Ppr3 and Ppr4,NXTAR promoter,abrogated
"CCN(c1cc(-c2ccc(CN3CCOCC3)cc2)cc(C(=O)NCc2c(C)cc(C)[nH]c2=O)c1C)C1CCOCC1 [EPZ6438, reference compound]",AR expression,"AR; VCaP cells infected with NXTAR construct, EPZ6438 1 μM overnight",restored the AR expression
